{"source": "patent US20250333377A1", "about": "“SOLID FORM OF NAPHTHYLAMINE MITOPHAGY INDUCER, AND PREPARATION METHOD THEREFOR, PHARMACEUTICAL COMPOSITION THEREOF AND USE THEREOF” (HANGZHOU PHECDAMED CO., LTD., priority 2023, published 2025)", "key": {"[1]": {"assay": "Crystal form conversion (heat treatment, suspension competition test, DSC analysis)", "assay_type": "physicochemical", "text": "The mutual conversion relationship among the A, B, C, D crystal forms of the sodium salt is further studied in this embodiment by heat treatment under nitrogen protection and suspension competition test.\nHowever, the methods of heating, suspension pulping as well as grinding can not study the thermodynamic conversion relationship between crystal form A and crystal form D. In order to further study the thermodynamic conversion relationship of crystal form A and crystal form D, analyzed from the DSC pattern, the DSC of crystal form A is shown in FIG. 2, and the DSC of crystal form D is shown in FIG. 11, the melting point of crystal form A is higher than that of crystal form D, whereas the enthalpy of melting of crystal form A is much lower than that of crystal form D. It may be judged from the thermodynamic stability relationship table that if TA>TD, ΔHf, A>ΔHf, D, crystal form A and D is a univariate relationship, crystal form A is stable, if TA>TD, ΔHf, A<ΔHf, D, crystal forms A and D are reciprocal relationships, if the temperature is higher than the transcrystallization temperature, crystal form A is stable, and if the temperature is lower than the transcrystallization temperature, crystal form D is stable."}, "[2]": {"test_system": "SD rat puromycin aminonucleoside (PAN) model", "assay": "PAN-induced renal injury model in rats", "assay_type": "in vivo, SD rats", "method": "The effect of D crystal form of TJ01-013 on renal function is studied in the SD rat puromycin aminonucleoside (PAN) model. Each group has twelve male rats of 160-180 g. On the first day of the experiment, except for the normal control group, rats in the other groups are given a single intraperitoneal injection of 100 mg/kg PAN (aminonucleoside puromycin) to induce the production of proteinuria. After modeling, the rats are randomly divided into the model control group, the three dose groups of 3 mg/kg, 10 mg/kg, and 30 mg/kg of the D crystal form of TJ01-013, and the normal control group. At the same time as intraperitoneal injection of PAN for modeling, the drug is administered by gavage once a day, with a volume of 10 mL/kg, for four consecutive weeks."}, "[3]": {"conditions": "3, 10, and 30 mg/kg gavage, 7 and 12 d after administration, versus model control"}}, "data": [{"smiles": "O=C(O)C[S+]([O-])c1cc(NS(=O)(=O)c2ccc(Br)cc2)c2ccccc2c1O", "note": "(centres unmarked) [Embodiment 4]", "values": [{"measurement": "Crystal form conversion / relative stability in suspension competition test", "setting": "[1]; equal amounts mixed, RT/50, magnetic stirring ~1000 rpm, about 20 hours, listed as crystal form D", "value": "more stable than crystal form B, C"}, {"measurement": "Thermodynamic stability of crystal form A versus crystal form D", "setting": "[1]; judged from DSC data (Tables 9-10)", "value": "more stable at lower temperatures"}, {"measurement": "Amount of the 24 h urine protein", "setting": "[2]; [3]", "value": "different degrees of reduction"}, {"measurement": "Urine protein concentration", "setting": "[2]; [3]", "value": "different degrees of reduction"}, {"measurement": "Amount of the 24 h urine protein", "setting": "[2]; 3, 10, and 30 mg/kg, 12 d after administration", "value": "certain trend of reduction"}, {"measurement": "Blood albumin", "setting": "[2]; 3, 10 and 30 mg/kg, 7 d and 12 d after administration, versus model control", "value": "different degrees of increase"}, {"measurement": "Therapeutic effect on PAN-induced renal injury", "setting": "[2]; gavage 3, 10, 30 mg/kg", "value": "significant therapeutic effect"}, {"measurement": "Degree of renal lesions, pathologic microscopy", "setting": "[2]; low, medium and high dose groups", "value": "reduce the degree of lesions"}]}]}
